Structures can show the parent of a compound that is named as a salt.
molecular target: T1, α4β2-subtype (central nicotine receptor) (Rattus norvegicus, UniProt P09483+P12390); assay: Radioligand assay: [3H] cytisin binding to the α4β2-subtype in rat brain membranes; settings: not given
T1 construct: Membrane-enriched fractions of rat brain without cerebellum; tissue ABS Inc. Wilmington, Del; host or cells: rat brain without cerebellum, membrane-enriched fractions
Protocol: (2 samples each). The non-specific binding was determined with 10 μM (−)nicotine. The incubation was […] by vacuum filtration through a Whatman GF/C filter which previously had been humidified with 0.5% polyethylene imine. Bound radioactivity was collected on Millipore Multiscreen plates FB with a Packard Cell Harvester, and determined with a Packard Topcount Microplate Beta Counter. IC50 values were determined by non-linear regression, and from this the Ki values by means of the Cheng-Prusoff equation, wherein Ki=IC50/1+[ligand]/KID. The mean Ki values were obtained from at least three individual determinations.

T1 sequence (P09483 31-630): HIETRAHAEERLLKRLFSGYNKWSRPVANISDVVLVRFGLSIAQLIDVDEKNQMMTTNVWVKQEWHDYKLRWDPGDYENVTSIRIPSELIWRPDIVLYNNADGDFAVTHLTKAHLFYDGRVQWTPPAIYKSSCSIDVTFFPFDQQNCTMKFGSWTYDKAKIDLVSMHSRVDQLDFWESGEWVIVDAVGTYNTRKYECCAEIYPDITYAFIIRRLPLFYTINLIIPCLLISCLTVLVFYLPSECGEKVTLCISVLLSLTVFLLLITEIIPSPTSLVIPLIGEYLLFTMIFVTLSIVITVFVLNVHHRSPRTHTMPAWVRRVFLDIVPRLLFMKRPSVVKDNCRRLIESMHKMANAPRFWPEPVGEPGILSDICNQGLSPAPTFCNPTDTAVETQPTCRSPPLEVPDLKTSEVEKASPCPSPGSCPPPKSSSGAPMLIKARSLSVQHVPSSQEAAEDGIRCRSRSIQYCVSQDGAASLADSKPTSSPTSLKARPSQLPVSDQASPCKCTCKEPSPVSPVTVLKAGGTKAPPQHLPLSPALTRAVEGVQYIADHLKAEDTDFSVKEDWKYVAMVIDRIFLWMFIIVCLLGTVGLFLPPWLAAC
T1 sequence (P12390 25-500): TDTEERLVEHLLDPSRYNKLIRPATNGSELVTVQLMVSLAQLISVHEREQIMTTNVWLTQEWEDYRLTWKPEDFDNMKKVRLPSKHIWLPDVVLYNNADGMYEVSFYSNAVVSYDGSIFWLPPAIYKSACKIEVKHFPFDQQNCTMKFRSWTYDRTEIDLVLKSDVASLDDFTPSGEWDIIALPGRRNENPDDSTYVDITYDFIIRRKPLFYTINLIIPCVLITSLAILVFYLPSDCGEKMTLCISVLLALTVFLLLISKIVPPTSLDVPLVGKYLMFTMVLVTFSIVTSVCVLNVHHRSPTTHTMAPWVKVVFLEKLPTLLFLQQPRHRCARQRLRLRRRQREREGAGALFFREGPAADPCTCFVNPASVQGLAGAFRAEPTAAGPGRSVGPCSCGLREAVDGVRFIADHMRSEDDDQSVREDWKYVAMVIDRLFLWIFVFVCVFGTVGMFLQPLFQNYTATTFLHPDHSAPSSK

Question: With `c1cnc2c(c1)C1NCCC1C2` (single isomer, unassigned; (+)) [Example 1, (+)-[3aα,8bα]-1,2,3,3a,4,8b-Hexahydropyrrolo-[2′,3′:3,4]cyclopenta[1,2-b]pyridine-dihydrochloride] as the compound, how does the Ki read?
Answer: The Ki was 2.43 µM.

Question: For `CN1CCC2Cc3ncccc3C21` (single isomer, unassigned; (+)) [Example 4, (+)-[3aα,8bα]-1,2,3,3a,4,8b-Hexahydro-1-methyl-pyrrolo[2′,3′:3,4]cyclopenta[1,2-b]pyridinedihydrochloride], which Ki is on record?
Answer: The Ki was greater than 1000 µM.

Question: With `c1cnc2c(c1)C1NCCC1C2` (single isomer, unassigned; (-)) [Example 2, (−)-[3aα,8bα]-1,2,3,3a,4,8b-Hexahydropyrrolo-[2′,3′:3,4]cyclopenta[1,2-b]pyridine-dihydrochloride] as the compound, how does the Ki read?
Answer: Its Ki is greater than 1000 µM.

Question: Which Ki does the source give for `CN1CCC2Cc3ncccc3C21` (single isomer, unassigned; (-)) [Example 3, (−)-[3aα,8bα]-1,2,3,3a,4,8b-Hexahydro-1-methyl-pyrrolo[2′,3′:3,4]cyclopenta[1,2-b]pyridine-dihydrochloride] here?
Answer: Its Ki is 0.199 µM.

Question: Which Ki does the source give for `c1cc2c(cn1)[C@H]1NCC[C@H]1C2` [Example 6, (−)-[3aR-(3aα,8bα)]-1,2,3,3a,4,8b-Hexahydropyrrolo[3′,2′:4,5]-cyclopenta[1,2-c]pyridinodihydrochloride] here?
Answer: The Ki was 0.0152 µM.

Question: Which Ki does the source give for `CN1CC[C@@H]2Cc3ccncc3[C@@H]21` [Example 7, (+)-[3aS-(3aα,8bα)]-1,2,3,3a,4,8b-Hexahydro-1-methyl-pyrrolo[3′,2′:4,5]-cyclopenta[1,2-c]pyridinodihydrochloride] here?
Answer: The Ki was 1.67 µM.

Question: With `CN1CC[C@H]2Cc3ccncc3[C@H]21` [Example 8, (−)-[3aR-(3aα,8bα)]-1,2,3,3a,4,8b-Hexahydro-1-methylpyrrolo[3′,2′:4,5]cyclopenta[1,2-c]pyridinodihydrochloride] as the compound, how does the Ki read?
Answer: Its Ki is 0.027 µM.

same assay, conditions: [3H] cytisin 0.75 nM, rat brain membranes without cerebellum, 75 min at 4° C.; mean of at least three determinations; Ki from IC50 by Cheng-Prusoff; read-out: Ki Values of the Enantiomer Pairs

Question: For `c1cc2c(cn1)[C@@H]1NCC[C@@H]1C2` [Example 5, (+)-(3aS-(3aα,8bα)]-1,2,3,3a,4,8b-Hexahydropyrrolo[3′,2′:4,5]-cyclopenta[1,2-c]-pyridinodihydrochloride], which Ki is on record?
Answer: The Ki was 1.11 µM.

system: not given; assay: not given; settings: not given

Question: For `c1cc2c(cn1)[C@H]1NCC[C@H]1C2` (as salt: hydrochloride) [Example 6, (−)-[3aR-(3aα,8bα)]-1,2,3,3a,4,8b-Hexahydropyrrolo[3′,2′:4,5]-cyclopenta[1,2-c]pyridinodihydrochloride], which melting point is on record?
Answer: Its melting point is 94 to 95 °C.

Question: Which melting point does the source give for `c1cnc2c(c1)C1NCCC1C2` (single isomer, unassigned; (-)) (as salt: hydrochloride) [Example 2, (−)-[3aα,8bα]-1,2,3,3a,4,8b-Hexahydropyrrolo-[2′,3′:3,4]cyclopenta[1,2-b]pyridine-dihydrochloride] here?
Answer: Its melting point is 95 to 97 °C.
